Test results reported in PubChem BioAssay AID1902 (Broad Institute, 2009).
Calls of active or inactive are those of the source.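 Rule for the calls: active = EC50 no more than a set limit of log units above the highest dose; inactive = the rest.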

target: S. pyogenes SKKanGAS, kanamycin survival, BacTiterGlo, 6 h; assay: SKKanGAS survival reduction under kanamycin, dose response, streptokinase promoter inhibitor project, SKKanGAS strain, luminescence, dose confirmation (AID 1902);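 note: lower survival reflects blocked streptokinase promoter driving kanamycin resistance gene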

SMILES	EC50
Cc1ccc(-c2cc([C@H]3[C@@H]4C=CCC[C@@]4(C)C(=O)N3Cc3ccccc3)ccc2F)cc1	3.44 µM
O=C(O)CSCC(=O)N(Cc1ccccc1)c1nc(-c2ccccc2)c(-c2ccccc2)s1	1.58 µM
Fc1ccc(Br)cc1C1C=C(c2ccc(Br)s2)Nc2ncnn21 (configuration not stated)	6.39 µM
CCOc1ccc(NC(=O)CN(C)C(=O)C2CC(=O)N(c3ccc4c(c3)OCCO4)C2)cc1OCC (configuration not stated)	> 15 µM (inactive)
CCCC(O)(c1ccc(Br)cc1)C(CN1CCOCC1)c1ccc(Cl)cc1 (configuration not stated)	10.1 µM
COc1ccc(C(=O)CSc2nc(-c3ccccn3)nc(C)c2Cl)cc1	1.4 µM
Cc1ccc(Nc2nc(N)nc(CN3CCN(c4ccccc4)CC3)n2)cc1Cl	13.2 µM
C=C(C)C1Cc2c(C)nn(-c3cccc4ccccc34)c2C1 (configuration not stated)	5.89 µM
CCOC(=O)c1c2c(n(C)c1COC)C(=O)C(=O)c1ccc(Br)cc1-2	3.66 µM
O=C1CC(N(CCc2ccccc2)C(=S)Nc2ccccc2)C(=O)N1c1ccc(Br)cc1 (configuration not stated)	3.07 µM
CCC1C(=NO)C(CC)C(c2ccccc2)NC1c1ccccc1 (configuration not stated)	3.34 µM
COC(=O)[C@@H]1[C@@H](C#N)C2(c3ccccc3-c3ccccc32)N(c2ccc(Cl)cc2)N1C#N	9.76 µM
O=C(Nc1nnc(-c2ccc(Br)cc2)o1)c1cccc(N2C(=O)CCC2=O)c1	1.35 µM
C/C(=N\NC(=O)c1cc2ccccc2cc1O)c1cc2ccccc2o1	1.47 µM
CCOc1ccc(-n2cc(-c3ccccc3)c3c(=S)nc[nH]c32)cc1	5.73 µM
CCOC(=O)C1=C(O)c2ccccc2C(=O)/C1=C\c1ccc(CC)cc1	8.49 µM
CCC1=NN(C(=O)c2ccccc2O)C(O)(c2ccccc2)C1 (configuration not stated)	1.94 µM
Brc1ccc(Nc2ncnc3[nH]ncc23)cc1	8.45 µM
Cc1ccccc1OCC(=O)Nc1ccccc1N1CCCCC1	8.71 µM
O=C(Nc1nnc(C2=COCCO2)o1)c1ccc(Cc2ccccc2)cc1	1.47 µM
CCc1nnc(NC(=O)c2ccc(S(=O)(=O)N3CCCc4ccccc43)cc2)o1	1.68 µM
COc1c(N2CCN(C(=S)NC3CC4CCC3C4)C(C)C2)c(F)cc2c(=O)c(C(=O)O)cn(C3CC3)c12 (configuration not stated)	3.09 µM

SMILES	EC50
CCOc1ccc(-c2csc(/C(C#N)=C\c3ccc(O)c([N+](=O)[O-])c3)n2)cc1	1.99 µM
Cc1ccc(NC(=O)c2nc[nH]c2C(=O)N[C@@H](C)c2ccccc2)cc1	1.13 µM
O=C(Nc1cccc(Cl)c1N1CCCCC1)c1ccc2c(c1)OCCO2	10.5 µM
Cc1c(CCC(=O)O)c(=O)oc2cc3occ(-c4ccc(Cl)cc4)c3cc12	3.46 µM
O=C1NC(=Nc2ccc(Cl)cc2)SC1Cc1cc(Cl)ccc1Cl (configuration not stated)	2.97 µM
Cc1cccc(C)c1NC(=S)N/N=C/c1ccc(OCCC(C)C)cc1	2.49 µM
CCOC(=O)Cc1c(C)nc2c(-c3cccc(Br)c3)c[nH]n2c1=O	3.53 µM
O=C(N/N=C/c1ccccn1)c1ccc(Cl)c(Cl)c1	6.85 µM
COc1cccc(-c2nnc(Nc3nc4c(F)cccc4s3)o2)c1	0.502 µM
O=C(Nc1ccc(-c2csc(Nc3ccccc3)n2)cc1)c1cccc(C(F)(F)F)c1	> 15 µM (inactive)
N#Cc1c(-c2ccccc2)c(-c2ccccc2)nn(CC(=O)NNC(=O)Nc2ccc(Cl)c(Cl)c2)c1=O	5.3 µM
O=c1cc(-c2ccc(O)c(-c3c(O)cc(O)c4c(=O)cc(-c5ccc(O)cc5)oc34)c2)oc2cc(O)cc(O)c12	2.3 µM
O=[N+]([O-])c1cc(Cl)cc(/C=N\Nc2ccccn2)c1O	2.89 µM
O=C(CN(C(=O)Cn1nnc(-c2ccccc2F)n1)c1cccc2c1CCCC2)NCc1ccccc1	5.32 µM
COc1cccc(NC(=S)NN=C2CCCCCC2)c1	1.77 µM
CCCN(CC(=O)Nc1cc(Cl)cc(Cl)c1)CC(=O)Nc1ccc(F)c(F)c1F	4.87 µM
O=C(O)c1cc(-c2ccc(-c3c(-c4ccc5c(c4)OCO5)noc3-c3ccsc3)cc2)nc2ccccc12	1.84 µM
CCCCNc1c(-c2ccc(SC(C)CC)c(OC)c2)nc2ccc(C)cn12 (configuration not stated)	3.46 µM
CC(C)(C)c1ccc(-c2noc(-c3ccc4c(c3)CCO4)n2)cc1	7.95 µM
CC(C)C[C@H](NC(=O)c1[nH]cnc1C(=O)Nc1ccccc1)C(=O)OC(C)(C)C	3.8 µM
S=C(NCc1ccco1)N1CCN(c2nc(-c3ccc(Cl)cc3)cs2)CC1	9.92 µM
CCCCCn1c(=O)c(C(=O)Nc2cnccn2)c(O)c2ccccc21	3.18 µM

SMILES	EC50
Clc1ccc(SCc2cc(Cl)nc(-c3ccccc3)n2)cc1	> 15 µM (inactive)
O=C(NC(=S)N1CCN(c2c(Cl)cccc2[N+](=O)[O-])CC1)c1cccs1	5.15 µM
Cc1ccc(-c2[nH]nc(N)c2N=Nc2ccccc2C)cc1	1.07 µM
CCCCCCCCCCCC1=C(O)C(=O)C=C(O)C1=O	1.67 µM
CC(C)=CCc1c(-c2ccc(O)cc2O)oc2c3c(cc(O)c2c1=O)OC(C)(C)C=C3	1.23 µM
CCCCCCCCCCC[N+](C)(C)CC/C=C1/c2ccccc2Sc2ccc(Cl)cc21	2.4 µM
Cc1cc(N2C(=O)C(O)=C(C(=O)c3cc4ccccc4o3)C2c2cccc(Cl)c2)no1 (configuration not stated)	1.33 µM
COc1ccc(C(=O)Nc2cccc(-c3ccc(N4CCOCC4)nn3)c2)cc1	> 15 µM (inactive)
O=C(Cc1cccs1)N/N=C/c1ccco1	2.9 µM
COc1ccc(OC)c2[nH]c(C(=O)N/N=C/c3ccccc3O)cc12	1.64 µM
CCCOc1ccc(/C=C/c2c([N+](=O)[O-])c(=O)n(C)c(=O)n2C)cc1	7.11 µM
COc1ccccc1N=Nc1ccc(O)c2ncccc12	0.665 µM
Cc1ccc(C2(c3ccc(C)cc3)CC2C(=O)Nc2ccc([N+](=O)[O-])cc2O)cc1 (configuration not stated)	2.15 µM
Oc1[nH]c2ccc(Br)cc2c1N=NC(=S)N1CCOCC1	0.108 µM
COc1ccc(Br)cc1/C=C/c1ccc2cccc(O)c2n1	0.138 µM
Oc1cccc2ccc(/C=C/c3c(F)cccc3Cl)nc12	0.43 µM
COc1ccc(-c2cc3nc4ccccc4n3c(N)c2C#N)cc1	4.21 µM
COc1cnc(-c2ccccn2)nc1Sc1ccc(Cl)cc1	4.96 µM
Cc1ccc(Cn2c(C(CO)Nc3nc(-c4ccc(F)cc4)cs3)nc3ccccc32)cc1 (configuration not stated)	3.35 µM
CC(C)N=c1cc2n(-c3ccc(Cl)cc3)c3ccccc3nc-2cc1Nc1ccc(Cl)cc1	1.24 µM
Oc1nc(Nc2ccc(Cl)cc2Cl)sc1/C=C1\C=Nc2ccccc21	1.76 µM
COc1ccc2c(c1)C(=NNc1ccc(C(=O)O)cc1)c1cc(OC)ccc1-2	4.68 µM

SMILES	EC50
O=C(Nc1nnc(C2=COCCO2)o1)c1cccc(C(F)(F)F)c1	1.73 µM
N#Cc1ccc(NC(=O)Nc2ccc(Cl)cc2)cc1	6.03 µM
COc1cc([N+](=O)[O-])cc(/C=N/NC(=O)C(C)Nc2cccc(C)c2)c1O (configuration not stated)	8.83 µM
O=C(NNC(=O)c1ccccc1OCc1ccc(F)cc1)c1ccccc1O	2.5 µM
Nc1nonc1C(=O)NCCN=Cc1cc(Cc2ccccc2)cc(Br)c1O	5 µM
CC(Oc1ccc(Br)cc1)C(=O)Nc1nc(-c2ccccn2)cs1 (configuration not stated)	< 0.06 µM
CC(/C=C1\SC(=O)N(CC(=O)Nc2ccc(O)cc2)C1=O)=C\c1ccccc1	8.02 µM
CCCOc1ccc(Cc2c(Cl)nc(SC)nc2N(C)C)cc1	3.46 µM
O=C(c1ccc(O)cc1)c1ccc(C(=O)c2ccc(O)cc2)cc1	5.07 µM
CC(NC(=O)Cn1c(=O)[nH]c2ccsc2c1=O)C12CC3CC(CC(C3)C1)C2 (configuration not stated)	> 15 µM (inactive)
O=c1c2c([N+](=O)[O-])cc([N+](=O)[O-])cc2sn1Cc1ccccc1	6.62 µM
CCOC(=O)c1cnc(-n2nc(C)cc2C)nc1Nc1ccc(C)cc1	0.101 µM
CC(=O)[C@]1(O)Cc2c(O)c3c(c(O)c2[C@@H](O[C@H]2C[C@H](N)[C@H](O)[C@H](C)O2)C1)C(=O)c1ccccc1C3=O	1.13 µM
CCn1cc(C(=O)O)c(=O)c2cc(F)c(N/N=C/c3ccccc3[N+](=O)[O-])cc21	4.39 µM
CCCCc1nc2cc(C(=O)N3CCC(OCCOC)CC3)ccc2o1	> 15 µM (inactive)
N/C(=N\NC(=O)c1sccc1OCc1ccc(Cl)cc1Cl)c1ccccn1	3.32 µM
O=C(Nc1nc2ccccc2n1CCOc1ccccc1)c1ccco1	6.87 µM
CCCCCCN1N=C(C)C(C(=O)c2ccc(Cl)cc2)C1=O (configuration not stated)	1.51 µM
COc1ccc(CCN2C(=O)c3[nH]nc(-c4ccccc4O)c3C2c2cccc(Cl)c2)cc1 (configuration not stated)	7.71 µM
COc1cccc(-c2nnc(NC(=O)c3ccc(S(=O)(=O)N4CC(C)OC(C)C4)cc3)o2)c1 (configuration not stated)	1.16 µM
O=C(NC(=S)NNC(=O)c1ccco1)c1ccc(Br)cc1	0.772 µM
CCCOc1ccc(C(=O)NNC(=S)NC(=O)CC)cc1	0.431 µM

SMILES	EC50
Oc1cccc2ccc(/C=C/c3ccccc3Br)nc12	0.158 µM
c1cn2c(NC3CCCCC3)c(-c3ccc(SC4CCCCC4)cc3)nc2cn1	1.97 µM
O=C(Nc1nc(-c2ccccn2)cs1)Nc1ccc(F)cc1F	1.24 µM
O=C(NC(=S)Nc1ccc(N2CCOCC2)c(Cl)c1)c1cccs1	9.89 µM
O=[N+]([O-])c1cc(S(=O)(=O)C(F)(F)F)ccc1Sc1nc2ccccc2[nH]1	4.1 µM
O=C(COc1ccccc1)NNC(=S)NC(=O)c1ccc(Cl)cc1Cl	0.361 µM
Oc1c(CN2CCN(c3ccccn3)CC2)cc(Cl)c2cccnc12	5.58 µM
COc1ccc(C(=O)NNC(=S)NC(=O)/C=C/c2cccs2)cc1	0.598 µM
COc1ccc2oc(=O)c(-c3csc(Nc4ccc(O)cc4)n3)cc2c1	2.16 µM
Cc1oc2c(c1C(=O)NCc1cccnc1)C(=O)c1ccccc1C2=O	0.882 µM
CCOC(=O)N1CCN(C(=O)c2ccc3c(=O)n(CCC4=CCCCC4)c(=S)[nH]c3c2)CC1	7.74 µM
O=C(Nc1ccccc1Cc1ccccc1)c1ccccc1NS(=O)(=O)c1ccc(Cl)s1	0.59 µM
CSc1ccc(S(=O)(=O)NCC(=O)OCC(=O)N2CCCC2=O)cc1[N+](=O)[O-]	9.29 µM
C[C@H]1CC[C@@]2(C)[C@@H](CC[C@@H]3[C@@H]2CC[C@]2(C)[C@@H](O)CC[C@@H]32)C1	0.856 µM
CCCOc1ccc(C(=O)NC(=S)NNC(=O)c2c(-c3ccccc3)noc2C)cc1	0.274 µM
COc1ccc(-c2nnc(NC(=O)c3cc(Cl)ccc3Cl)o2)cc1	0.814 µM
Cc1cccc(OCC(=O)Nc2ccc(C(=O)Nc3ccccc3C(=O)O)cc2)c1C	2.41 µM
Cc1cccc(NS(=O)(=O)c2ccc(C3CCCCC3)cc2)c1	4.82 µM
O=C(c1cc(-c2ccc(Br)cc2)nc2ccccc12)N1CCN(c2ccccc2O)CC1	6.44 µM
